Assay results: patent US20110039763A1, “TARGETED ANTIMICROBIAL MOIETIES” (C3 JIAN, INC., priority 2009, published 2011)
“Also recorded” adds a separate entry of the source.

How the values were obtained:
microorganisms [1] = assay: Peptide activities: targeting/binding, antimicrobial, growth or phenotype altering (Tables 7, 8); assay type: cell-based; conditions: peptides having multiple activities
microorganisms [2] = assay: Targeting peptide binding to target microorganisms (Tables 3, 10, 12); conditions: microorganism(s) the targeting peptide binds; binding in aqueous buffers varied with peptide solubility, preferably 1x PBS
microorganisms [3] = assay: Morphology, biofilm and growth disrupting peptides (Table 5); assay type: cell-based; design: key: A: Peptide aggregates; B: Less hyphal formation; Clumps; Diffuse clumps and small polyps; F: Diffuse growth; H: Thin; I: Growth inhibition; Microcolony formation; Rippled; Small polyps; Thick; W: Halo formation on top, microlonies on bottom
Text: In certain embodiments peptides that induce alterations in phenotype or other biological activities can also be used as antimicrobial effector moieties.

In the case of “PF-598: peptide having multiple activities (chain 1 MKFMLEVRNKAISAYKEITRTQI; chain 2 MKFMLEVRNKAISAYKEITRTQI; Peptide with targeting and/or antimicrobial activity)”, the Activities (microorganisms [1]) is reported as “G B”, the “Target(s)” value (microorganisms [2]) is reported as “S. epidermidis and M. luteus and P. mirabilis and P. aeruginosa and C. albicans and MRSA and S. pneumoniae and C. jeikeium” and the “Organism, effect” value (microorganisms [3]; C. jejuni) is reported as “C. jejuni (R)”. The “Organism, effect” value (microorganisms [3]; E. coli) was “E. coli (C)”, the “Organism, effect” value (microorganisms [3]; E. faecalis) was “E. faecalis (R)” and the “Organism, effect” value (microorganisms [3]; MRSA) was “MRSA (D)”. For the same substance, the “Organism, effect” value (microorganisms [3]; S. epidermidis) was “S. epidermidis (R)” and the “Organism, effect” value (microorganisms [3]; S. pneumoniae) was “S. pneumoniae (R)”.

With “PF-599: peptide having multiple activities (chain 1 LFEIFKPKH; chain 2 LFEIFKPKH; Peptide with targeting and/or antimicrobial activity)” the Activities (microorganisms [1]) was “G B”, the “Target(s)” value (microorganisms [2]) was “S. epidermidis and P. mirabilis and E. coli and C. albicans and MRSA and S. pneumoniae and C. jeikeium” and the “Organism, effect” value (microorganisms [3]; C. jejuni) was “C. jejuni (R)”. For the same substance, the “Organism, effect” value (microorganisms [3]; E. faecalis) was “E. faecalis (A)”, the “Organism, effect” value (microorganisms [3]; MRSA) was “MRSA (C)” and the “Organism, effect” value (microorganisms [3]; S. epidermidis) was “S. epidermidis (M)”. For the same substance, the “Organism, effect” value (microorganisms [3]; S. pneumoniae) was “S. pneumoniae (R)”.

“PF-601: peptide having multiple activities (chain 1 YRVTVKALE; chain 2 YRVTVKALE; Peptide with targeting and/or antimicrobial activity)” was tested, and the Activities (microorganisms [1]) was “G B”, the “Target(s)” value (microorganisms [2]) was “C. jeikeium” and the “Organism, effect” value (microorganisms [3]; C. jejuni) was “C. jejuni (A)”. The “Organism, effect” value (microorganisms [3]; E. faecalis) was “E. faecalis (A)”.

In the case of “PF-602: peptide having multiple activities (chain 1 LEKEKKEYIEKLFKTK; chain 2 LEKEKKEYIEKLFKTK; Peptide with targeting and/or antimicrobial activity)”, the Activities (microorganisms [1]) is reported as “G B”, the “Target(s)” value (microorganisms [2]) is reported as “P. mirabilis; also recorded: C. jeikeium” and the “Organism, effect” value (microorganisms [3]; E. faecalis) is reported as “E. faecalis (A)”.

For “PF-604: peptide having multiple activities (chain 1 LMEQVEV; chain 2 LMEQVEV; Peptide with targeting and/or antimicrobial activity)”, the Activities (microorganisms [1]) was “G B”, the “Target(s)” value (microorganisms [2]) was “S. epidermidis; also recorded: C. albicans; also recorded: C. jeikeium” and the “Organism, effect” value (microorganisms [3]; E. faecalis) was “E. faecalis (A)”.

With “PF-607: peptide having multiple activities (chain 1 YIESDPRKFDYIFGAIRDH; chain 2 YIESDPRKFDYIFGAIRDH; Peptide with targeting and/or antimicrobial activity)” the Activities (microorganisms [1]) was “G B”, the “Target(s)” value (microorganisms [2]) was “S. epidermidis and P. mirabilis and E. coli and MRSA and S. pneumoniae and C. jeikeium” and the “Organism, effect” value (microorganisms [3]; C. jejuni) was “C. jejuni (R)”. The “Organism, effect” value (microorganisms [3]; E. faecalis) was “E. faecalis (A)”, the “Organism, effect” value (microorganisms [3]; MRSA) was “MRSA (S)” and the “Organism, effect” value (microorganisms [3]; S. epidermidis) was “S. epidermidis (M)”. For the same substance, the “Organism, effect” value (microorganisms [3]; S. pneumoniae) was “S. pneumoniae (R)”.

For “PF-609: peptide having multiple activities (chain 1 TEIKLDNNEYLVLNLDDILGILK; chain 2 TEIKLDNNEYLVLNLDDILGILK; Peptide with targeting and/or antimicrobial activity)”, the Activities (microorganisms [1]) was “G B”, the “Target(s)” value (microorganisms [2]) was “P. mirabilis; also recorded: E. coli; also recorded: S. pneumoniae” and the “Organism, effect” value (microorganisms [3]; C. jejuni) was “C. jejuni (R)”. For the same substance, the “Organism, effect” value (microorganisms [3]; E. faecalis) was “E. faecalis (A)”, the “Organism, effect” value (microorganisms [3]; MRSA) was “MRSA (C)” and the “Organism, effect” value (microorganisms [3]; S. pneumoniae) was “S. pneumoniae (R)”.

For “PF-613: peptide having multiple activities (chain 1 ADEFAKL; chain 2 ADEFAKL; Peptide with targeting and/or antimicrobial activity)”, the Activities (microorganisms [1]) was “G B”, the “Target(s)” value (microorganisms [2]) was “C. jeikeium” and the “Organism, effect” value (microorganisms [3]; E. faecalis) was “E. faecalis (A)”. The “Organism, effect” value (microorganisms [3]; MRSA) was “MRSA (C)” and the “Organism, effect” value (microorganisms [3]; S. epidermidis) was “S. epidermidis (R)”.

“PF-614: peptide having multiple activities (chain 1 GLDIYA; chain 2 GLDIYA; Peptide with targeting and/or antimicrobial activity)” was tested, and the Activities (microorganisms [1]) was “G B”, the “Target(s)” value (microorganisms [2]) was “S. epidermidis; also recorded: E. coli; also recorded: C. jeikeium” and the “Organism, effect” value (microorganisms [3]; C. jejuni) was “C. jejuni (R)”. For the same substance, the “Organism, effect” value (microorganisms [3]; E. faecalis) was “E. faecalis (A)”, the “Organism, effect” value (microorganisms [3]; S. epidermidis) was “S. epidermidis (M)” and the “Organism, effect” value (microorganisms [3]; S. pneumoniae) was “S. pneumoniae (R)”.

In the case of “PF-616: peptide having multiple activities (chain 1 IVFVVTKEKK; chain 2 IVFVVTKEKK; Peptide with targeting and/or antimicrobial activity)”, the Activities (microorganisms [1]) is reported as “G B”, the “Target(s)” value (microorganisms [2]) is reported as “C. jeikeium” and the “Organism, effect” value (microorganisms [3]; E. faecalis) is reported as “E. faecalis (A)”. For the same substance, the “Organism, effect” value (microorganisms [3]; S. epidermidis) was “S. epidermidis (R)”.

“PF-617: peptide having multiple activities (chain 1 PMNAAEPE; chain 2 PMNAAEPE; Peptide with targeting and/or antimicrobial activity)” was tested, and the Activities (microorganisms [1]) was “G B”, the “Target(s)” value (microorganisms [2]) was “P. aeruginosa; also recorded: C. albicans” and the “Organism, effect” value (microorganisms [3]; C. albicans) was “C. albicans (H)”. The “Organism, effect” value (microorganisms [3]; E. faecalis) was “E. faecalis (H)” and the “Organism, effect” value (microorganisms [3]; S. pneumoniae) was “S. pneumoniae (I)”.

For “PF-621: peptide having multiple activities (chain 1 PPSSFLV; chain 2 PPSSFLV; Peptide with targeting and/or antimicrobial activity)”, the Activities (microorganisms [1]) was “G B”, the “Target(s)” value (microorganisms [2]) was “S. epidermidis; also recorded: C. albicans” and the “Organism, effect” value (microorganisms [3]; E. faecalis) was “E. faecalis (H)”. The “Organism, effect” value (microorganisms [3]; S. pneumoniae) was “S. pneumoniae (I)”.

“PF-622: peptide having multiple activities (chain 1 TREDVFSVRLINNIVNKQA; chain 2 TREDVFSVRLINNIVNKQA; Peptide with targeting and/or antimicrobial activity)” was tested, and the Activities (microorganisms [1]) was “G B”, the “Target(s)” value (microorganisms [2]) was “S. epidermidis; also recorded: P. aeruginosa; also recorded: C. albicans; also recorded: S. pneumoniae; also recorded: E. faecalis; also recorded: C. jeikeium” and the “Organism, effect” value (microorganisms [3]; C. jeikeium) was “C. jeikeium (D)”. The “Organism, effect” value (microorganisms [3]; E. faecalis) was “E. faecalis (D)”, the “Organism, effect” value (microorganisms [3]; MRSA) was “MRSA (D)” and the “Organism, effect” value (microorganisms [3]; S. epidermidis) was “S. epidermidis (D)”. For the same substance, the “Organism, effect” value (microorganisms [3]; S. pneumoniae) was “S. pneumoniae (M)”.

“PF-623: peptide having multiple activities (chain 1 VLFAVYLGALDWLFSWLTQKM; chain 2 VLFAVYLGALDWLFSWLTQKM; Peptide with targeting and/or antimicrobial activity)” was tested, and the Activities (microorganisms [1]) was “G B”, the “Target(s)” value (microorganisms [2]) was “S. epidermidis and P. aeruginosa and MRSA and S. pneumoniae and E. faecalis and C. jeikeium” and the “Organism, effect” value (microorganisms [3]; C. jeikeium) was “C. jeikeium (R)”. For the same substance, the “Organism, effect” value (microorganisms [3]; E. faecalis) was “E. faecalis (D)”, the “Organism, effect” value (microorganisms [3]; MRSA) was “MRSA (D)” and the “Organism, effect” value (microorganisms [3]; S. epidermidis) was “S. epidermidis (M)”. The “Organism, effect” value (microorganisms [3]; S. pneumoniae) was “S. pneumoniae (D)”.

“PF-625: peptide having multiple activities (chain 1 SDSTNNARTRKKARDVTTKDIDK; chain 2 SDSTNNARTRKKARDVTTKDIDK; Peptide with targeting and/or antimicrobial activity)” was tested, and the Activities (microorganisms [1]) was “G B”, the “Target(s)” value (microorganisms [2]) was “S. epidermidis; also recorded: M. luteus; also recorded: S. pneumoniae; also recorded: C. jeikeium” and the “Organism, effect” value (microorganisms [3]; S. pneumoniae) was “S. pneumoniae (H)”.

“PF-626: peptide having multiple activities (chain 1 KYDFDDFEPEEA; chain 2 KYDFDDFEPEEA; Peptide with targeting and/or antimicrobial activity)” was tested, and the Activities (microorganisms [1]) was “G B”, the “Target(s)” value (microorganisms [2]) was “S. epidermidis and M. luteus and E. coli and C. albicans and MRSA and S. pneumoniae and E. faecalis and C. jeikeium” and the “Organism, effect” value (microorganisms [3]; S. pneumoniae) was “S. pneumoniae (H)”.

In the case of “PF-627: peptide having multiple activities (chain 1 INDLLSYFTLHEK; chain 2 INDLLSYFTLHEK; Peptide with targeting and/or antimicrobial activity)”, the Activities (microorganisms [1]) is reported as “G B”, the “Target(s)” value (microorganisms [2]) is reported as “S. epidermidis and P. aeruginosa and MRSA and S. pneumoniae and E. faecalis and C. jeikeium” and the “Organism, effect” value (microorganisms [3]; C. albicans) is reported as “C. albicans (B)”. The “Organism, effect” value (microorganisms [3]; E. faecalis) was “E. faecalis (H)”, the “Organism, effect” value (microorganisms [3]; MRSA) was “MRSA (R)” and the “Organism, effect” value (microorganisms [3]; S. epidermidis) was “S. epidermidis (H)”. For the same substance, the “Organism, effect” value (microorganisms [3]; S. pneumoniae) was “S. pneumoniae (I)”.

“PF-629: peptide having multiple activities (chain 1 GLAAIATVFALY; chain 2 GLAAIATVFALY; Peptide with targeting and/or antimicrobial activity)” was tested, and the Activities (microorganisms [1]) was “G B”, the “Target(s)” value (microorganisms [2]) was “S. epidermidis and P. aeruginosa and C. albicans and MRSA and S. pneumoniae and E. faecalis and C. jeikeium” and the “Organism, effect” value (microorganisms [3]; C. jeikeium) was “C. jeikeium (R)”. The “Organism, effect” value (microorganisms [3]; E. faecalis) was “E. faecalis (R)”, the “Organism, effect” value (microorganisms [3]; MRSA) was “MRSA (D)” and the “Organism, effect” value (microorganisms [3]; S. epidermidis) was “S. epidermidis (C)”. The “Organism, effect” value (microorganisms [3]; S. pneumoniae) was “S. pneumoniae (M)”.

“PF-631: peptide having multiple activities (chain 1 LIIYFSKTGNTARATRQI; chain 2 LIIYFSKTGNTARATRQI; Peptide with targeting and/or antimicrobial activity)” was tested, and the Activities (microorganisms [1]) was “G B”, the “Target(s)” value (microorganisms [2]) was “S. epidermidis and P. aeruginosa and C. albicans and MRSA and S. pneumoniae and E. faecalis and C. jeikeium” and the “Organism, effect” value (microorganisms [3]; E. faecalis) was “E. faecalis (H)”. For the same substance, the “Organism, effect” value (microorganisms [3]; S. pneumoniae) was “S. pneumoniae (I)”.

With “PF-632: peptide having multiple activities (chain 1 TTIQGVASLEKHGFRYTIIYPTRI; chain 2 TTIQGVASLEKHGFRYTIIYPTRI; Peptide with targeting and/or antimicrobial activity)” the Activities (microorganisms [1]) was “G B”, the “Target(s)” value (microorganisms [2]) was “S. epidermidis and P. aeruginosa and C. albicans and MRSA and S. pneumoniae and E. faecalis and C. jeikeium” and the “Organism, effect” value (microorganisms [3]; B. subtilis) was “B. subtilis (H)”. For the same substance, the “Organism, effect” value (microorganisms [3]; C. albicans) was “C. albicans (B)”, the “Organism, effect” value (microorganisms [3]; C. jeikeium) was “C. jeikeium (D)” and the “Organism, effect” value (microorganisms [3]; E. faecalis) was “E. faecalis (D)”. For the same substance, the “Organism, effect” value (microorganisms [3]; MRSA) was “MRSA (D)”, the “Organism, effect” value (microorganisms [3]; S. epidermidis) was “S. epidermidis (D)” and the “Organism, effect” value (microorganisms [3]; S. pneumoniae) was “S. pneumoniae (M)”.
